These results are taken from US5512478A, “Genes and enzymes involved in the microbial degradation of pentachlorophenol” (Idaho Research Foundation, Inc., priority 1994, dated 1996).

The target in data set [1] is T1, PcpB (Sphingobium chlorophenolicum, UniProt P42535).
T1 construct: endogenous in cells; host or cells: Flavobacterium sp; Strain ATCC 39723, PCP-induced; enzyme purified in house from the native bacterium
As to the kind of experiment: Substrate disappearance in the presence of PcpB (substrate range). The note with it: for (%) Relative Activity (substrate disappearance in the presence of PcpB): 10 nmoles substrate, 40 nmoles NADPH, PcpB 500 μg/ml, 80 mM potassium phosphate pH 7.5, 0.5% Tween 20, 23° C., PCP assumed 100%; for End Products of PcpB reaction: HPLC or GC/MS analysis. Format: biochemical, Flavobacterium sp. Strain ATCC 39723. The procedure:
A stock solution of PCP (concentration, 37.6 mM) was prepared in 0.2M NaOH and stored in the dark at room temperature. Stock solutions of all other halogenated aromatic compounds (concentration, 20 mM) were prepared in absolute ethanol and stored at 4° C. in the dark. The NADPH solution of 10 mM was freshly prepared in 1 mM dithiothreitol and 1 mM Tris base (pH 13).
PcpB was purified as described above. Enzyme reactions were conducted in 80 mM potassium phosphate buffer (pH 7.5) with 0.5% Tween 20 at 23° C. The enzyme concentration was 500 μg/ml in all reactions.
All of the aromatic substrates and the corresponding enzyme product (aromatic portion) were monitored by reverse phase high-performance liquid chromatography (HPLC) analysis as described above for PCP and TeCH analysis, except that the absorptions at 285, 300, and 310 nm were recorded by using a Waters 490 E programmable multiwavelength UV detector. Gas chromatography/mass spectrometry (GC/MS) analysis was done as previously described (Topp and Akhtar, 1990).
I^- was measured by the Leuco crystal violet assay described above. NO2 was colorimetrically measured using the N-(1-naphthyl) ethylenediamine dihydrochloride-sulfanilamide reagent method (American Public Health Association, 17th Ed., 1989). NH3 was colorimetrically measured by Nesslerization method (American Public Health Association, 17th Ed., 1989). CN was measured by the colorimetric method of Nagashima (1984). NH2 OH was measured by the method of Magee and Burris (1954).
^a All enzyme reactions were conducted in a reaction mix volume of 10
μl, containing 10 nmoles of substrate, 40 nmoles of NADPH. The
substrate depletion and product production were measured by HPLC or GC/MS
analysis. Relative enzyme activity for PCP was assumed to be 100%; the
relative enzyme activities for other compounds were compared with that fo

In data set [2] the target is T1, PcpB. The note with it: GC/MS; cited from earlier work.
For data set [3], the target named is T1, PcpB. As to the kind of experiment: PCP degradation as an assay of PcpB activity (HPLC). It is filed as biochemical, Flavobacterium sp. Strain ATCC 39723. As for the experimental part: PcpB activity was assayed by measuring the depletion of PCP and/or the production of TECH. […] MgSO4 was later determined not to enhance the activity of the purified enzyme. Tween 20 was determined to facilitate reproducible quantitation of PCP by high-performance liquid chromatography (HPLC) analysis as described below. A 10 μl volume of reaction mixture was injected onto the HPLC column at 4 min. after the start of the reaction. One unit of enzyme activity was defined as the amount of enzyme that catalyzed the production of 1 μmol of TeCH or the consumption of 1 μmol of PCP per min under the assay conditions. The reaction rate was linear for about 5 min. with […] of the enzyme, and then the reaction rate decreased gradually over the next 15 min.
PCP and TeCH were analyzed by HPLC (Waters, Milford, Mass.) on a Nova-Pak C18 column (3.9 by 150 mm) with an 11 mM H3 PO4 -acetonitrile gradient (acetonitrile concentrations 10 to 65% 5 min.! and 65% 10 min.!). Maximum absorption at 310, 320, and 330 nm was recorded by use of a Waters 490E programmable multiwavelength UV detector connected to a Maxima NEC computer workstation (Waters). The retention times of PCP and TeCH were 11.5 and 8.9 min., respectively. PCP and TeCH were quantified by comparing their peak areas with the peak areas of authentic standards. NADPH concentration in the reaction mixture was measured by HPLC on the Nova-Pak C18 column with an isocratic 50 mM KPi buffer (ph 8.0). Flavins were determined by HPLC on a μCarbohydrate analyzing column (3.9 by 300 mm) (Analytical Sciences Incorporated, Santa Clara, Calif.) with an isocratic solution of acetonitrile-distilled water (60:40, vol/vol). Protein purity was checked by HPLC on a Delta Pak C18 30 nm column (3.9 by 150 mm) with a water-acetonitrile gradient containing 0.1% trifluoroacetic acid (acetonitrile concentrations, 15% 1 min.!, 15 to 40% 1 min.!, 40% 2 min.!, 40 to 75% 8 min.!, 75 to 100% 1 min.!, 100% 7 min.!, 100 to 15% 1 min.!) at a flow rate of 1 ml/min. […]
and incubated at room temperature for 4 min. before being analyzed by […]

Data set [4] in a line: Stability of TeCH in the PcpB reaction mixture. Format: physicochemical.
The target of data set [5] is T2, PcpC (Sphingobium chlorophenolicum, UniProt Q03520).
T2 construct: endogenous in cells; host or cells: Flavobacterium sp; Strain ATCC 39723, PCP-induced; enzyme purified in house from the native bacterium
T2 sequence (Q03520 2-248): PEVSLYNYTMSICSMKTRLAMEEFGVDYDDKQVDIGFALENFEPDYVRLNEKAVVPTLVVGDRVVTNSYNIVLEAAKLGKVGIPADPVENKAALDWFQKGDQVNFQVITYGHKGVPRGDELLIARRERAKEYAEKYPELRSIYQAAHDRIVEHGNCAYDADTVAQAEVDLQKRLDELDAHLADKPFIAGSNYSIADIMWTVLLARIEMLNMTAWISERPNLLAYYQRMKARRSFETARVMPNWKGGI
It is filed as biochemical, Flavobacterium sp. Strain ATCC 39723. The settings on record: 33 μg of purified enzyme per ml; GC-MS of ether extract. The procedure: Enzymatic activity assay. The reaction mixture contained 50 mM KPi buffer (pH 7.4), 0.4% Tween 20 (Sigma), 100 μM of TeCH, and 1 mM ascorbic acid. All the reactions were incubated at 23° C. in an anaerobic chamber containing an atmosphere of 85% N2, 5% CO2, and 10% H2 (Coy Laboratory Products Inc., Ann Arbor, Mich.). The reactions were stopped by addition of an equal volume of acetonitrile to the reaction mixture. TeCH stock solution (20 mM) was prepared in absolute ethanol. NADPH and NADH stock solutions (10 mM) were freshly prepared in 1 mM Tris buffer (pH 13) with 1 mM dithiothreitol. […]
Analytical method. […] TeCH, TrCH and DiCH were analyzed by HPLC on a Nova-Pak C-18 column (3.9 by 150 mm) (Waters, Milford, Mass.) with an 11 mM H3 PO4 -acetonitrile gradient as described above. Maximum absorption at 285, 300, 310 nm was recorded by using a Waters 490E programmable multiwave-length UV detector connected to a Maxima NEC computer workstation (Waters). […] TeCH and DiCH in the reaction mixtures were identified and quantified by comparison of their retention time and peak areas with that of authentic standards, respectively. TrCH was extracted with diethyl ether from the reaction mixture and analyzed by gas chromatography/mass spectrometry (GC/MS) as described by Topp and Akhtar (1990). […] GSH and the oxidized form of glutathione (GS-SG) were detected by the enzymatic method of Tietze (1969).

Like-named read-outs stand apart in the source and are kept apart here.

T1 sequence (P42535 2-538): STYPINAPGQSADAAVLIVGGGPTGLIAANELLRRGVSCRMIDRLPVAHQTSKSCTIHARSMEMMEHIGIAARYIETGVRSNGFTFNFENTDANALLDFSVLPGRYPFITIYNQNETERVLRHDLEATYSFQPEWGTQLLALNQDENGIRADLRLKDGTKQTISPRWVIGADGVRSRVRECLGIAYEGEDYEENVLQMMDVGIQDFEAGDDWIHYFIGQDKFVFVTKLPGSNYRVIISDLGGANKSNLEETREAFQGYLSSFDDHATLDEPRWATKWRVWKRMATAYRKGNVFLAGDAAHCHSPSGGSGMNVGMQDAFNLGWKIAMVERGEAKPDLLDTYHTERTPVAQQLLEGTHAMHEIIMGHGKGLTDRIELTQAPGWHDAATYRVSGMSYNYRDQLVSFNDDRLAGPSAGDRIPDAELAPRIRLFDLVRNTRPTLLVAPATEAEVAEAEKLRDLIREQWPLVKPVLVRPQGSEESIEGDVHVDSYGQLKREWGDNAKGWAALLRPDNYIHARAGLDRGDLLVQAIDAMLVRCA

As to `Oc1ccc(Cl)c(Cl)c1Cl` [2,3,4-Trichlorophenol], the “(%) Relative Activity (substrate disappearance in the presence of PcpB)” value (“(%) Relative Activity” below) in data set [1] turned out to be 29%.
Regarding `Oc1c(Cl)c(Cl)cc(Cl)c1Cl` [2,3,5,6-Tetrachlorophenol], in data set [1], the “(%) Relative Activity” value was 1212% and the “End Products of PcpB reaction” value is given as “TeCH”.
For `Oc1c(Cl)ccc(Cl)c1Cl` [2,3,6-Trichlorophenol, 2,3,6-trichlorophenol] the same measures were 302% and 2,3,6-trichloro-p-hydroquinone.
As for `Oc1cccc(Cl)c1Cl` [2,3-Dichlorophenol], the “(%) Relative Activity” value in data set [1] is listed as 24%.
As to `Oc1c(Br)cc(Br)cc1Br` [2,4,6-Tribromophenol], the “(%) Relative Activity” value in data set [1] was determined as 35%.
With `Oc1c(Cl)cc(Cl)cc1Cl` [2,4,6-Trichlorophenol, 2,4,6-trichlorophenol], in data set [1], the “(%) Relative Activity” value is 29% and the “End Products of PcpB reaction” value is recorded as 2,6-dichloro-p-hydroquinone.
For `Oc1c(I)cc(I)cc1I` [2,4,6-Triiodophenol] the same measures were 172% and 2,6-diiodo-p-hydroquinone.
Consider `O=[N+]([O-])c1cc(Br)c(O)c(Br)c1` [2,6-Dibromo-4-nitrophenol], for which the “(%) Relative Activity” value in data set [1] is given as 62%.
Turning to `Oc1c(Br)cccc1Br` [2,6-Dibromophenol], the “(%) Relative Activity” value in data set [1] is 605%.
For `Oc1c(Cl)cccc1Cl` [2,6-Dichlorophenol, 2,6-dichlorophenol], in data set [1], the “(%) Relative Activity” value is reported as 344% and the “End Products of PcpB reaction” value was 2,6-dichloro-p-hydroquinone.
The like results for `Oc1cc(Cl)c(Cl)c(Cl)c1` [3,4,5-Trichlorophenol, 3,4,5trichlorophenol] were, in that order, 0% and “None”.
As for `N#Cc1cc(Br)c(O)c(Br)c1` [3,5-Dibromo-4-hydroxybenzonitrile], in data set [2], the “End Products of PcpB reaction (from Topp et al.)” value was 2,6-dibromo-p-hydroquinone. Besides, the “(%) Relative Activity” value in data set [1] was 591%.
Regarding `Oc1cc(Cl)cc(Cl)c1` [3,5-Dichlorophenol, 3,5dichlorophenol], in data set [1], the “(%) Relative Activity” value was 0% and the “End Products of PcpB reaction” value is listed as “None”.
For `N#Cc1cc(I)c(O)c(I)c1` [3,5-Diiodo-4-hydroxybenzonitrile], in data set [1], the “(%) Relative Activity” value is 835%. Besides, the “End Products of PcpB reaction” value in data set [1] (listed as 3,5-diiodo-4-hydroxylbenzonitrile) is listed as “DIHQ”.
On to `Nc1cc(Cl)c(O)c(Cl)c1` [4-Amino-2,6-dichlorophenol], for which, in data set [1], the “(%) Relative Activity” value was 93%.
Consider `O=C(O)CN(CCN(CC(=O)O)CC(=O)O)CC(=O)O` [EDTA], for which the “influence of additive on activity of purified PcpB” value in data set [3] is “did not influence the enzymatic activity”.
As to `O=S(=O)([O-])[O-].[Mg+2]` [MgSO4], the “influence of additive on activity of purified PcpB” value in data set [3] (addition to 5 mM) is “did not influence the enzymatic activity”.
Regarding `Oc1c(Cl)c(Cl)c(Cl)c(Cl)c1Cl` [Pentachlorophenol], in data set [1], the “(%) Relative Activity” value is 100%. Moreover, the “End Products of PcpB reaction” value in data set [1] (listed as PCP) is listed as “TeCH”. For the same compound, the “Conversion of PCP to TeCH by purified PcpB” value in data set [3] (37 μM PCP, 100 mM KPi buffer (pH 7.0), 100 μM NADPH, within 20 min.) is given as “completely converted”.
`Oc1c(F)c(F)c(F)c(F)c1F` [Pentafluorophenol]: the “(%) Relative Activity” value in data set [1] amounted to 47%.
Take `Oc1c(Cl)c(Cl)c(O)c(Cl)c1Cl` [TeCH, 2,3,5,6-tetrachloro-p-hydroquinone]: the results for the “stability of TeCH” value in data set [4] (optimal pH conditions (7.5 to 9.0)) and in data set [4] (pH lower than 7.5) were “highly unstable” and “relatively stable”, respectively. Further, the “product of TeCH conversion by TeCH reductive dehalogenase” value in data set [5] is on record as “DiCH”.
As to `Oc1ccccc1` [phenol], the “Extent of oxidation/degradation by the enzyme” value in data set [1] is “not degraded”.
